From US6517742B1, “Sunscreen agents, photoprotective cosmetic compositions containing them and uses thereof” (L'Oreal, priority 1996, dated 2003)

Assay: UV absorption spectrum in ethanol (λmax, εmax)
Assay type: physicochemical
Set-up: UV εmax: unit not given beside the values
Conditions: for UV εmax: at λmax

Molecule	UV λmax (Ethanol)	UV εmax (Ethanol)	UV λmax (95% Ethanol)	UV εmax (95% Ethanol)
CC12CCC(C(=Cc3ccc(Nc4nc(NCCC[Si](C)(O[Si](C)(C)C)O[Si](C)(C)C)nc(Nc5ccc(C=C6C(=O)C7(C)CCC6C7(C)C)cc5)n4)cc3)C1=O)C2(C)C [Example 2, 2,4-bis(4′-ylamnobenzylidenecamphor)-6-{[1,3,3,3-tetramethyl-1-[(trimethylsilyl)oxy]disiloxanyl]propyl-3-ylamino}-s-triazine]	354 nm	66,460	–	–
CC(C)COC(=O)C(=Cc1ccc(Nc2nc(NCCC[Si](C)(O[Si](C)(C)C)O[Si](C)(C)C)nc(Nc3ccc(C=C(C(=O)OCC(C)C)C(=O)OCC(C)C)cc3)n2)cc1)C(=O)OCC(C)C [Example 5, 2,4-bis(diisobutyl 4′-ylaminobenzalmalonate)-6-{[1,1,1,3-tetramethyl-1-[(trimethylsilyl)oxy]disiloxanyl]propyl-3-ylamino}-s-triazine]	356.5 nm	65,650	–	–
Cc1cc(Nc2nc(NCCC[Si](C)(O[Si](C)(C)C)O[Si](C)(C)C)nc(NCCC[Si](C)(O[Si](C)(C)C)O[Si](C)(C)C)n2)c(O)c(-n2nc3ccccc3n2)c1 [Example 4, 2-(2-benzotriazol-2-yl-4-methyl-6-ylaminophenol)-4,6-bis{[1,3,3,3-tetramethyl-1-[(trimethylsilyl)oxy]disiloxanyl]propyl-3-ylamino}-s-triazine]	324 nm	22,000	–	–
2-(butyl 4′-ylaminobenzoate)-4,6-bis{[1,3,3,3-tetramethyl-1-[(trimethylsilyl)oxy]disiloxanyl]propyl-3-ylamino}-s-triazine [Example 1]	300 nm	40,800	–	–
CCCCOC(=O)c1ccc(Nc2nc(NCCC[Si](C)(O[Si](C)(C)C)O[Si](C)(C)C)nc(Nc3ccc(C(=O)OCCCC)cc3)n2)cc1 [Example 3, 2,4-bis(butyl 4′-ylaminobenzoate)-6-{[1,3,3,3-tetramethyl-1-[(trimethylsilyl)oxy]disiloxanyl]propyl-3-ylamino}-s-triazine]	–	–	310 nm	75,510
